Drawing on patent US20240150345A1, “GCN2 MODULATING COMPOUNDS AND USES THEREOF” (HiberCell, Inc., priority 2021, published 2024), this text covers IC50 for 26 compounds.

By IC50 is commonly meant the concentration that gives 50% inhibition.

Some results are limits rather than exact numbers.

For the experiment, the target named is T1, GCN2 (Homo sapiens, UniProt Q9P2K8).
T1 construct: purchased Carma Biosciences (so in the source)
T1 sequence (Q9P2K8 whole entry): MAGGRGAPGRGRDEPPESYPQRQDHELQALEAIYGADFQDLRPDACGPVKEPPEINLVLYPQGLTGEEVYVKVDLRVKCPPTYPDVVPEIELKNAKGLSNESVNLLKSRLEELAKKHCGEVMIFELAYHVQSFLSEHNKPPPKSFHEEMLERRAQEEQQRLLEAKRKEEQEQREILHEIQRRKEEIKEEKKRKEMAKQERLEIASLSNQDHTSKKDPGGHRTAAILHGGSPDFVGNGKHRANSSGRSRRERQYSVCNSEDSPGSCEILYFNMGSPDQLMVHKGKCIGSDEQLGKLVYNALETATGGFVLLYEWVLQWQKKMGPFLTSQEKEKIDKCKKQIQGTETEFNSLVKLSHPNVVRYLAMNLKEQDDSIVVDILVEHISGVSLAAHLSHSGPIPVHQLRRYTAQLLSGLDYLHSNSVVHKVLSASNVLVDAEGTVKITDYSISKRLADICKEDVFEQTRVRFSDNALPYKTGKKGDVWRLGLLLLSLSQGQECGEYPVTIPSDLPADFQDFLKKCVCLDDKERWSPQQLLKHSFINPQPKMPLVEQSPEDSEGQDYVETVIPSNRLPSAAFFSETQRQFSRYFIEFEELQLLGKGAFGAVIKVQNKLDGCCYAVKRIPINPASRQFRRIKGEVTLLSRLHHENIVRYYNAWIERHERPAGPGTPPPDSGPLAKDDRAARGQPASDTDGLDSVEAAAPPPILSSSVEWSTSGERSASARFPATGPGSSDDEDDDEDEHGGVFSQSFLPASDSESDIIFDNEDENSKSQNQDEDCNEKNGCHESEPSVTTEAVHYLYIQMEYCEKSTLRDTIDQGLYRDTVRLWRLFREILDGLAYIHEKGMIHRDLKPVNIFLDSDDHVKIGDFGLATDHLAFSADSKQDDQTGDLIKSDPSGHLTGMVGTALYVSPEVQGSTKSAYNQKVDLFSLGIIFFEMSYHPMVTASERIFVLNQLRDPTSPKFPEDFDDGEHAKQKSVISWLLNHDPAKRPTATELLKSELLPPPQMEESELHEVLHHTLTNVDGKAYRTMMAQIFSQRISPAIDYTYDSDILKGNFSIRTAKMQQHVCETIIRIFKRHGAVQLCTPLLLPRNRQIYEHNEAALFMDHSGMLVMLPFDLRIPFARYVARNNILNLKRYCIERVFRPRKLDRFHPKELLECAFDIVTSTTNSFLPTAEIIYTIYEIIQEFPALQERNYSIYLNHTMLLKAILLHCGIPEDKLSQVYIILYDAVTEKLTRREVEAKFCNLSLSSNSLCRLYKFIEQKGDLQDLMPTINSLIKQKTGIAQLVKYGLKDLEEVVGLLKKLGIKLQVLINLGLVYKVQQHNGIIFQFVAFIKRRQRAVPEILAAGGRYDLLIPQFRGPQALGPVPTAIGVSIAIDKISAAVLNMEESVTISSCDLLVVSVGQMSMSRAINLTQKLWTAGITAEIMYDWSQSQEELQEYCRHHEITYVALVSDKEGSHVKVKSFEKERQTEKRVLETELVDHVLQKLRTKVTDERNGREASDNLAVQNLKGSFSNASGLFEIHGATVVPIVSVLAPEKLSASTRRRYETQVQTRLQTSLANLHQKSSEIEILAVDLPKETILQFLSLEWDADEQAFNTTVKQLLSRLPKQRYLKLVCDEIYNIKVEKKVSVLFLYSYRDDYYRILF
Kind of experiment: TR-FRET biochemical assay for inhibition of GCN2 activity. To be noted: 2 nM GCN2, 100 nM GFP-eIF2α, 150 μM ATP, 1.5 hours at 25° C. On the procedure:
Exemplary compounds from the above Examples were tested for ability to inhibit GCN2 activity using a time resolved fluorescence energy transfer (TR-FRET) assay. Assay procedures and results are described below for Examples 12-105.
GCN2 protein was obtained from Carma Biosciences (cat #05-153). The protein was diluted in assay buffer (ThermoFisher Scientific, #PV6135), 2 mM dithiothreitol (DTT), to obtain a final concentration of 2 nM and 5 μL was plated in a 384-well white assay plate. Test compounds were serially diluted to 11 concentrations by 3-fold dilution in DMS0 and 10 nL of stock was plated into 384 well white assay plate. DMS0 was used as a vehicle control. GFP-eIF2α protein was obtained from ThermoFisher (cat #PV4809). The protein was diluted in assay buffer to a 2× concentration of 200 nM along with 300 μM ATP (final concentration of 100 nM GFP-eIF2α and 150 μM ATP) in the presence of 2 mM DTT and a […] was added to each well containing the GCN2 protein and test compound. The plate was incubated in the dark at 25° C. for 1.5 hours, shaking at 1250 rpm. Tb-anti P-eIF2α (ThermoFisher cat #PV4815) was diluted to a to a concentration of 1 nM in TR-FRET Dilution Buffer (ThermoFisher cat #PV3574). 10 μL of the Tb-anti P-eIF2a solution was added to the TR-FRET reaction. The plate was incubated in the dark for 2 h at 25° C. shaking at 600 rpm. The FRET signal from the plate was read on a Envision (PerkinElmer) plate reader: • Label 1: Excitation: 340 nm, bandwidth 30 nm; Emission: 495 nm, bandwidth 10 nm. Lag time: 100 μsec. Integration time: 400 μsec. Flashes: 30. • Label 2: Excitation: 340 nm, bandwidth 30 nm; Emission: 520 nm, bandwidth 25 nm. Lag time: 100 μsec. Integration time: 400 μsec. Flashes: 30
The data were analyzed using GraphPad Prism employing a 4-parameter sigmoidal curve fit.
For orientation: Time-resolved FRET reads energy transfer from a long-lived donor to a nearby acceptor.
On to `Cc1ncc(F)cc1S(=O)(=O)Nc1ccc(F)c(COc2cnc3[nH]nc(C)c3c2)c1F` [Compound 38, N-[2,4-difluoro-3-[([3-methyl-1H-pyrazolo[3,4-b]pyridin-5-yl]oxy)methyl]phenyl]-5-fluoro-2-methylpyridine-3-sulfonamide], for which the IC50 was less than 50 nM.

The compound `COc1ncc(F)cc1S(=O)(=O)Nc1ccc(F)c(COc2cnc3[nH]nc(C)c3c2-c2cccnc2)c1F` [Compound 91, N-[2,4-difluoro-3-([[3-methyl-4-(pyridin-3-yl)-1H-pyrazolo[3,4-b]pyridin-5-yl]oxy]methyl)phenyl]-5-fluoro-2-methoxypyridine-3-sulfonamide] registered an IC50 of 50 to 500 nM.

With `Cc1ncc(F)cc1S(=O)(=O)Nc1ccc(Cl)c(COc2cnc3[nH]nc(C)c3c2)c1F` [Compound 77, N-(4-chloro-2-fluoro-3-(((3-methyl-1H-pyrazolo[3,4-b]pyridin-5-yl)oxy)methyl)phenyl)-5-fluoro-2-methylpyridine-3-sulfonamide], the IC50 is less than 50 nM.

`COc1ncc(Cl)cc1S(=O)(=O)Nc1ccnc(COc2cnc3[nH]nc(C)c3c2)c1F` [Compound 64, 5-chloro-N-[3-fluoro-2-[([3-methyl-1H-pyrazolo[3,4-b]pyridin-5-yl]oxy)methyl]pyridin-4-yl]-2-methoxypyridine-3-sulfonamide] came in with an IC50 of less than 50 nM.

The compound `COc1ncc(F)cc1S(=O)(=O)Nc1ccnc(COc2cnc3[nH]nc(C)c3c2)c1F` [Compound 63, 5-fluoro-N-[3-fluoro-2-[([3-methyl-1H-pyrazolo[3,4-b]pyridin-5-yl]oxy)methyl]pyridin-4-yl]-2-methoxypyridine-3-sulfonamide] registered an IC50 of 50 to 500 nM.

Turning to `COc1ncc(F)cc1S(=O)(=O)Nc1ccc(F)c(COc2cnc3[nH]nc(CC(F)(F)F)c3c2)c1F` [Compound 80, N-[2,4-difluoro-3-([[3-(2,2,2-trifluoroethyl)-1H-pyrazolo[3,4-b]pyridin-5-yl]oxy]methyl)phenyl]-5-fluoro-2-methoxypyridine-3-sulfonamide], the IC50 is less than 50 nM.

For the compound `COc1ncc(Cl)cc1S(=O)(=O)Nc1ccc(F)c(CCc2cnc3[nH]ccc3c2)c1F` [Compound 12, 5-chloro-N-[2,4-difluoro-3-(2-[1H-pyrrolo[2,3-b]pyridin-5-yl]ethyl)phenyl]-2-methoxypyridine-3-sulfonamide], the IC50 is less than 50 nM.

On to `COc1ncc(F)cc1S(=O)(=O)Nc1ccc(F)c(COc2cnn3cnc(C(F)(F)F)c3c2)c1F` [Compound 83, N-[2,4-difluoro-3-([[5-(trifluoromethyl)imidazo[1,5-b]pyridazin-3-yl]oxy]methyl)phenyl]-5-fluoro-2-methoxypyridine-3-sulfonamide], for which the IC50 is less than 50 nM.

`COc1ncc(F)cc1S(=O)(=O)Nc1ccc(F)c(COc2cnc3[nH]nc(C)c3c2C2CCCC2)c1F` [Compound 92, N-(3-(((4-cyclopentyl-3-methyl-1H-pyrazolo[3,4-b]pyridin-5-yl)oxy)methyl)-2,4-difluorophenyl)-5-fluoro-2-methoxypyridine-3-sulfonamide] returned an IC50 of 500 to 1000 nM.

The compound `COc1ncc(F)cc1S(=O)(=O)Nc1ccc(F)c(OCc2cnc3[nH]nc(C)c3c2)c1F` [Compound 45, N-[2,4-difluoro-3-([3-methyl-1H-pyrazolo[3,4-b]pyridin-5-yl]methoxy)phenyl]-5-fluoro-2-methoxypyridine-3-sulfonamide] had an IC50 of less than 50 nM.

`CCc1n[nH]c2ncc(OCc3c(F)ccc(NS(=O)(=O)c4cc(Cl)cnc4OC)c3F)cc12` [Compound 40, 5-chloro-N-[3-[([3-ethyl-1H-pyrazolo[3,4-b]pyridin-5-yl]oxy)methyl]-2,4-difluorophenyl]-2-methoxypyridine-3-sulfonamide] displayed an IC50 of less than 50 nM.

Compound `COc1ncc(Cl)cc1S(=O)(=O)Nc1ccc(F)c(NCc2cnc3[nH]nc(C)c3c2)c1F` [Compound 58, 5-chloro-N-[2,4-difluoro-3-[([3-methyl-1H-pyrazolo[3,4-b]pyridin-5-yl]methyl)amino]phenyl]-2-methoxypyridine-3-sulfonamide] registered an IC50 of less than 50 nM.

Regarding `COc1ncc(Cl)cc1S(=O)(=O)Nc1ccc(F)c(CCc2cnc3n2CCOC3)c1F` [Compound 5, 5-chloro-N-[2,4-difluoro-3-(2-[5H,6H,8H-imidazo[2,1-c][1,4]oxazin-3-yl]ethyl)phenyl]-2-methoxypyridine-3-sulfonamide], the IC50 was more than 1000 nM.

Consider `Cc1ncc(F)cc1S(=O)(=O)Nc1ccc(F)c(NCc2cnc3[nH]nc(C)c3c2)c1F` [Compound 59, N-[2,4-difluoro-3-[([3-methyl-1H-pyrazolo[3,4-b]pyridin-5-yl]methyl)amino]phenyl]-5-fluoro-2-methylpyridine-3-sulfonamide], for which the IC50 lay in the range of 50 to 500 nM.

`COc1ncc(Cl)cc1S(=O)(=O)Nc1ccc(F)c(COc2cnc3[nH]nc(C)c3c2)c1F` [Compound 14, 5-chloro-N-[2,4-difluoro-3-[([3-methyl-1H-pyrazolo[3,4-b]pyridin-5-yl]oxy)methyl]phenyl]-2-methoxypyridine-3-sulfonamide] displayed an IC50 of less than 50 nM.

In turn, `COc1ncc(Cl)cc1S(=O)(=O)Nc1ccc(F)c(CCc2cc3cn[nH]c3cn2)c1F` [Compound 13, 5-chloro-N-[2,4-difluoro-3-(2-[1H-pyrazolo[3,4-c]pyridin-5-yl]ethyl)phenyl]-2-methoxypyridine-3-sulfonamide] gave an IC50 of more than 1000 nM.

In turn, `COc1ncc(Cl)cc1S(=O)(=O)Nc1ccc(F)c(OCc2cnc3[nH]ncc3c2)c1F` [Compound 4, 5-chloro-N-(2,4-difluoro-3-[1H-pyrazolo[3,4-b]pyridin-5-ylmethoxy]phenyl)-2-methoxypyridine-3-sulfonamide] displayed an IC50 of less than 50 nM.

For `COc1ncc(F)cc1S(=O)(=O)Nc1ccc(F)c(CCc2cnc3cnn(C(C)C)c3c2)c1F` [Compound 36, N-[2,4-difluoro-3-(2-[1-isopropylpyrazolo[4,3-b]pyridin-6-yl]ethyl)phenyl]-5-fluoro-2-methoxypyridine-3-sulfonamide], the IC50 lay in the range of 50 to 500 nM.

Regarding `Cc1ncc(F)cc1S(=O)(=O)Nc1ccc(F)c(COc2cnc3[nH]ncc3c2)c1F` [Compound 30, N-(3-(((1H-pyrazolo[3,4-b]pyridin-5-yl)oxy)methyl)-2,4-difluorophenyl)-5-fluoro-2-methylpyridine-3-sulfonamide], the IC50 is less than 50 nM.

With `COc1ncc(C#N)cc1S(=O)(=O)Nc1ccc(F)c(COc2cnc3[nH]nc(C)c3c2)c1F` [Compound 50, 5-cyano-N-[2,4-difluoro-3-[([3-methyl-1H-pyrazolo[3,4-b]pyridin-5-yl]oxy)methyl]phenyl]-2-methoxypyridine-3-sulfonamide], the IC50 was less than 50 nM.

For the compound `COc1ncc(F)cc1S(=O)(=O)Nc1ccc(F)c(COc2cnc3cnn(C)c3c2)c1F` [Compound 43, N-[2,4-difluoro-3-[([1-methylpyrazolo[4,3-b]pyridin-6-yl]oxy)methyl]phenyl]-5-fluoro-2-methoxypyridine-3-sulfonamide], the concentration for half-maximal inhibition (IC50) was less than 50 nM.

As for `COc1ncc(Cl)cc1S(=O)(=O)Nc1ccc(F)c(CCc2cnc3[nH]ncc3c2)c1F` [Compound 7, 5-chloro-N-[2,4-difluoro-3-(2-[1H-pyrazolo[3,4-b]pyridin-5-yl]ethyl)phenyl]-2-methoxypyridine-3-sulfonamide], the IC50 was less than 50 nM.

`C#Cc1n[nH]c2ncc(OCc3c(F)ccc(NS(=O)(=O)c4cc(F)cnc4OC)c3F)cc12` [Compound 69, N-[3-[([3-ethynyl-1H-pyrazolo[3,4-b]pyridin-5-yl]oxy)methyl]-2,4-difluorophenyl]-5-fluoro-2-methoxypyridine-3-sulfonamide]: the IC50 is less than 50 nM.

For `Cc1ncc(F)cc1S(=O)(=O)Nc1ccc(F)c(CCc2cnc3[nH]ncc3c2)c1F` [Compound 9, N-(3-(2-(1H-pyrazolo[3,4-b]pyridin-5-yl)ethyl)-2,4-difluorophenyl)-5-fluoro-2-methylpyridine-3-sulfonamide], the IC50 is less than 50 nM.

For `COc1ncc(F)cc1S(=O)(=O)Nc1ccc(F)c(COc2cnc3[nH]nc(-c4ccccc4)c3c2)c1F` [Compound 84, N-[2,4-difluoro-3-[([3-phenyl-1H-pyrazolo[3,4-b]pyridin-5-yl]oxy)methyl]phenyl]-5-fluoro-2-methoxypyridine-3-sulfonamide], the IC50 was less than 50 nM.

Take `COc1ncc(F)cc1S(=O)(=O)Nc1ccc(F)c(COc2cnc3[nH]nc(C)c3c2-c2ccncc2)c1F` [Compound 87, N-[2,4-difluoro-3-([[3-methyl-4-(pyridin-4-yl)-1H-pyrazolo[3,4-b]pyridin-5-yl]oxy]methyl)phenyl]-5-fluoro-2-methoxypyridine-3-sulfonamide]: the IC50 lay in the range of 50 to 500 nM.
